{"source": "patent US10556860B2", "about": "“hTERT modulators and methods of use” (Arizona Board of Regents on Behalf of the University of …, priority 2015, dated 2020)", "key": {"[1]": {"tested_on": "G138/139A mutant hTERT G-quadruplex", "assay": "CD melting (Tm), G138/139A mutant", "type": "binding, human", "conditions": "2 equiv", "method": "Circular dichroism. Oligomers of WT, G124A, G124/125A, G138/139A and G146A were synthesized and HPSF-purified by MGW Operon, Inc. For CD analysis, oligomers (5 μM) in a buffer containing 10 mM Tris-HCl (pH 7.5) and 140 mM KCl were annealed. For the CD analysis of the complex of oligomers and compounds, oligomers (5 μM) in a buffer containing 10 mM Tris-HCl (pH 7.5) and 5 mM KCl for GTC365 or 1 mM KCl for BRACO-19 were annealed. Oligomers and GTC365 or BRACO-19 were incubated overnight at room temperature. For the full-length of C-rich strand, the oligomer in a buffer of 10 mM Na cacodylate (pH 6.6) was annealed and then incubated with GTC365 overnight. CD analysis was conducted on a Jasco 810 spectropolarimeter (Jasco, Easton, Md.) using a quartz cell with 1 mm of path length, 1 nm of band width, and 1 s of response time for spectra at 20° C. Melting curves for the determination of Tm were obtained by recording ellipticity at 262 nm with increasing temperatures from 25° C. to 95° C. at a rate of 1.6° C./min. Tm of the C-rich strand with GTC365 was obtained from the CD signal at 286 nm within 10-60° C.\nCD and DMS footprinting analyses were conducted to characterize the binding of GTC365 and BRACO-19 to the 5-12 G-quadruplex. […] To verify the effects of compounds on the thermal stability of the WT and the mutant G-quadruplexes, Tms were determined by CD. […]"}, "[2]": {"tested_on": "hTERT mRNA in melanoma cell line (UACC-903)", "assay": "qPCR of hTERT expression in G124A mutant melanoma cell line", "type": "cell-based, human", "conditions": "5 μM, 72 h", "method": "FIGS. 13A-13C are a set of graphs showingselective reduction in viability (A) and hTERT expression (B) in melanoma cells carrying hTERT core promotor mutations. NHM-002 (normal human melanocytes) and a G124A mutant cell line were treated with vehicle, 1.25, 2.5, and 5 μM GTC365 for 72 h. Viability was reduced in hTERT mutant melanoma cells by 50% (left). […] (C) Differential response to GTC365 in WT and promoter mutant cell lines.\nNext, to assess the selectivity of GTC365 for hTERT-dependent cancer cells relative to normal precursorcells, we compared the effects of a range of […] on viability at 72 h in normal humanmelanocytes (NHM-002) relative to those of UACC-903, aG124A mutant (FIG. 13A). […] To confirm that the reduction in cell viability was aresult of hTERT downregulation, we performed reverse transcription and qPCR to measure the mRNA level of hTERT expression in cells treated with DMSO or 5 μMGTC365. hTERT expression was reduced by 41% in themelanoma cell line after 72 h but was undetectable in normalmelanocytes, even in the absence of GTC365 (FIG. 13B). Finally, tobroadly assess the selectivity of GTC365 for hTERT promotermutant versus WT cells, we conducted a 6-point 72 h MTSproliferation assay to determine EC50s in 14 additional melanoma cell lines with characterized TERT promoter status([…]) (FIG. 13C). […]"}, "[3]": {"tested_on": "hTERT under the control of the CMV promoter", "assay": "hTERT transcription in MCF7 cells overexpressing hTERT under CMV promoter", "type": "cell-based, human", "conditions": "MCF7 cell line transfected with plasmid overexpressing hTERT (CMV promoter)", "method": "qPCR. MCF7 and melanoma cells were treated with GTC365 and BRACO-19 for 72 h. Total RNA was extracted using an RNeasy mini-prep kit (Qiagen) and quantitated by measuring absorbance at 260 nm. cDNA was synthesized using a Takara PrimeScript™ RT Reagent Kit with gDNA eraser and then used as a template for qPCR. The qPCR was performed using Kapa Probe Fast qPCR Master Mix with ABI Taqman probes of hTERT (Hs00972656_m1), BCL2 (HS00608023_m1, FAM-labeled) or MYC (Hs00153408_m1), and GAPDH (Hs02758991_g1, VIC-labeled). The Ct values were measured by running Rotor-Gene Q, and the relative quantity of hTERT, BCL2, and MYC mRNA was obtained compared to GAPDH as an internal control.\nEstablishment of stable cell lines overexpressing hTERT. The pCDNA-3XHA-hTERT plasmid containing hTERT driven by theCMV promoter was obtained from Addgene (ID: 51637) deposited by Dr. Steven Artandi. MCF7 cells in a 24-well plate were transfected with this plasmid (250 ng) using FuGENE HD transfection reagent for24 h. Cells were treated with several concentrations of G418 (0.1-1 mg/mL) and an antibiotic for colony selection for 4 weeks, and thenone colony was selected for further culture. […]"}}}
{"smiles": "N=C(N)NCCCS(=O)(=O)Nc1ccc(Nc2c3ccccc3nc3cc([N+](=O)[O-])ccc23)cc1", "note": "[GTC365]", "values": [{"measurement": "Tm more increased compared to the WT", "setting": "[1]", "value": "6-7 °C"}, {"measurement": "reduction of hTERT expression (mRNA)", "setting": "[2]", "value": 41, "unit": "%"}, {"measurement": "effect on hTERT transcription", "setting": "[3]", "value": "no effect"}]}
